Tests used:
[1] = tested on: human lung fibroblast cell line WI-26VA4 (ATCC CCL-95.1); assay: in vitro; details: 48 h
Procedure: (§1) Negative controls were composed of cells without treatment. Five serial dilutions (1:10) were made from a stock solution (10 mg mL − 1) using RPMI supplemented with 1% FBS. Cell viability was evaluated after 48 h of incubation by discarding the medium and adding 100 μL of 5% MTT, followed by 3 h of incubation. Then, the supernatant was discarded, and insoluble formazan product was dissolved in DMSO. The optical density (OD) of each well was measured using a microplate spectrophotometer at 550 nm. The OD of untreated control cells was defined as 100% cell viability and all assays were performed in triplicate. The selectivity index (SI) of samples was calculated by following Eq. 1 [29].1 SI=LC50of WI-26VA4 cell line/IC50ofP.falciparumstrain W2

in vitro = details: human, LC50 ± SD WI-26VA4
Procedure: as §1

[2] = tested on: Plasmodium falciparum chloroquine resistant (W2) strain; assay: In vitro antiplasmodial activity, blood smear (traditional) test, 48 h; assay type: cell-based; details: W2, 48 h, read-out: IC50 ± SD P. falciparum
Procedure: The parasites were synchronized using sorbitol treatment and the parasitemia was microscopically evaluated with Giemsa-stained blood smears.
After 48 h, blood smears were prepared, coded, stained with giemsa and examined at 1000×magnification. The parasitemia of controls (considered as 100% growth) was compared to test cultures, and then the percentage of infected red blood cells was calculated.
The results were expressed as mean of half-maximal inhibitory dose (IC50), with different drug concentrations performed in triplicate and compared with drug-free controls. Curve fitting was performed using OriginPro® 8.0 software (Origin Lab Corporation, Northampton, MA, USA).

IC50 [2]	Compound	CC50 [1]	CC50 at 48 h (in vitro)
0.09 ± 0.05 µM	O=C(N/N=C/c1cccc(O)c1)c1ccc(O)cc1 [AH4, 4-hydroxy-N'-[(1E)-(3-hydroxyphenyl)methylene]benzohydrazide]	> 100 µM	> 100 µM
0.07 ± 0.07 µM	O=C(N/N=C/c1cccc(O)c1)c1ccc(NC(=O)c2ccccc2)cc1 [AH5, N-(4-{[(2E)-2-(3-hydroxybenzylidene)hydrazino]carbonyl}phenyl) benzamide]	> 100 µM	> 100 µM
> 1 µM	O=C(O)CCC(=O)Nc1ccc(C(=O)N/N=C/c2cccc(O)c2)cc1 [AH6, 4-[(4-{[(2E)-2-(3-hydroxybenzylidene)hydrazino]carbonyl}phenyl)amino]-4-oxobutanoic acid]	–	100 ± 0.17 µM
> 1 µM	O=C(N/N=C/c1cccc(O)c1)c1ccncc1 [AH7, N'-[(1E)-(3-hydroxyphenyl)methylene]isonicotinohydrazide]	–	100 ± 0.13 µM
< 1.01 µM	CO[C@H]1O[C@@H]2O[C@@]3(C)CC[C@H]4[C@H](C)CC[C@@H]([C@H]1C)[C@@]24OO3 [Artemether, reference compound]	–	100 ± 0.18 µM

The remaining lines, values behind:

Compound	IC50 [2]	CC50 [1]	CC50 at 48 h (in vitro)
O=C(N/N=C/c1cccc(O)c1)c1ccccc1 [AH1, N'-[(1E)-(3-hydroxyphenyl)methylene]benzohydrazide]	0.19 ± 0.1 µM	> 100 µM	> 100 µM
O=C(N/N=C/c1cccc(O)c1)c1ccc(Cl)cc1 [AH2, 4-chloro-N'-[(1E)-(3-hydroxyphenyl)methylene]benzohydrazide]	2.15 ± 0.09 µM	> 100 µM	> 100 µM
O=C(N/N=C/c1cccc(O)c1)c1ccc([N+](=O)[O-])cc1 [AH3, N'-[(1E)-(3-hydroxyphenyl)methylene]-4-nitrobenzohydrazide]	> 1 µM	–	100 ± 0.19 µM
CCN(CC)CCCC(C)Nc1ccnc2cc(Cl)ccc12 (stereo not drawn) [Chloroquine, reference compound]	0.057 ± 0.14 µM	–	–

— article PMC9271247, “Evaluation of antiplasmodial activity in silico and in vitro of N-acylhydrazone derivatives” (BMC Chemistry, 2022)
